How the values were obtained:
[1] = tested on: GM3 expression on the cell surface, B16 mouse melanoma cells; experiment: cell based phenotypic assay, cell surface GM3 by antibody mediated immunofluorescence, B16 (GM3 B16 IC50); conditions: Mus musculus, B16 mouse melanoma cells; 50% inhibition of GM3 expression on the cell surface; read-out: GM3 B16 IC50
Outline: (§1)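 Both lines undergo the phenotypic GM3 assay, and viability is recorded from that same cell-based run.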

C32 human melanoma cells = experiment: cell viability in the C32 cell-based assay (Viability, C32 IC50); conditions: Homo sapiens, C32, C32 cells; concentration causing 50% cell death; values greater than 10 represent a lack of cell death; read-out: Viability, C32 IC50
Outline: (§2)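 Viability readouts were run alongside the GM3 cell-surface assay in the same B16 and C32 cultures. A figure above 10 indicates no cell death.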

B16 mouse melanoma cells = experiment: cell viability in the B16 cell-based assay (Viability, B16 IC50); conditions: Mus musculus, B16, B16 cells; concentration causing 50% cell death; values greater than 10 represent a lack of cell death; read-out: Viability, B16 IC50
Outline: as §2

[2] = biological target: T1, glucosylceramide synthase (Homo sapiens, UniProt Q16739); experiment: microsomal assay measuring conversion of ceramide to glucosylceramide by HPLC (GCS IC50); format: biochemical; conditions: concentration causing 50% inhibition of glucosylceramide synthase activity
T1 construct: Microsomes were isolated from A375 human melanoma cells; endogenous in cells; host or cells: A375 human melanoma cells (microsomal fraction, 100,000 g pellet)
T1 sequence (Q16739 1-394): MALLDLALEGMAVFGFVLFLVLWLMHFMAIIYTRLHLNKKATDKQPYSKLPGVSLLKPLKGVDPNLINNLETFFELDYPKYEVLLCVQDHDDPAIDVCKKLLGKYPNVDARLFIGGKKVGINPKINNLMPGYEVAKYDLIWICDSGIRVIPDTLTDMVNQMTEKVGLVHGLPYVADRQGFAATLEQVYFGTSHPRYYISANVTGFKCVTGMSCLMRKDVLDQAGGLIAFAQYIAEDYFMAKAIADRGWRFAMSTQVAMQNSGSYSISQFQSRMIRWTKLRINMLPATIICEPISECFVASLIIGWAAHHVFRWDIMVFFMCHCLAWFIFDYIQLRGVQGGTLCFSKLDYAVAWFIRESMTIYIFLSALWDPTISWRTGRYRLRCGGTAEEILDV
Outline: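 IC50 is the compound concentration halving glucosylceramide synthase activity. Activity was measured in microsomes, with HPLC quantifying glucosylceramide formed from ceramide.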

[3] = tested on: GM3 expression on the cell surface, C32 human melanoma cells; experiment: cell based phenotypic assay, cell surface GM3 by antibody mediated immunofluorescence, C32 (GM3 C32 IC50); conditions: Homo sapiens, C32 human melanoma cells; 50% inhibition of GM3 expression on the cell surface; read-out: GM3 C32 IC50
Outline: as §1

CC1(NC(=O)C2(F)CCN(c3nccc(-c4ccc(OCCF)cc4)n3)CC2)CCN2CCC1CC2 (stereo not drawn) [Example 90, 4-Fluoro-1-(4-(4-(2-fluoroethoxy)phenyl)pyrimidin-2-yl)-N-(4-methyl-1-azabicyclo[3.2.2]nonan-4-yl)piperidine-4-carboxamide]
IC50 [1]: 13.4 nM | IC50 (C32 human melanoma cells): 215 nM | IC50 (B16 mouse melanoma cells): 3060 nM | IC50 [2]: 2.26 nM | IC50 [3]: 0.0953 nM

COCCOc1ccc(-c2nc(N3CCC(F)(C(=O)NC4(C)CCN5CCC4CC5)CC3)ncc2F)cc1 (stereo not drawn) [Example 91, 4-Fluoro-1-(5-fluoro-4-(4-(2-methoxyethoxy)phenyl)pyrimidin-2-yl)-N-(4-methyl-1-azabicyclo[3.2.2]nonan-4-yl)piperidine-4-carboxamide]
IC50 [1]: 71.4 nM | IC50 (C32 human melanoma cells): 100 nM | IC50 (B16 mouse melanoma cells): 2660 nM | IC50 [2]: 2.04 nM | IC50 [3]: 0.117 nM

CC1(NC(=O)C2(F)CCN(c3nccc(-c4ccc(OCCF)cc4)n3)CC2)CN2CCC1CC2 (stereo not drawn) [Example 92, 4-Fluoro-1-(4-(4-(2-fluoroethoxy)phenyl)pyrimidin-2-yl)-N-(3-methylquinuclidin-3-yl)piperidine-4-carboxamide]
IC50 [1]: 29 nM | IC50 (C32 human melanoma cells): 100 nM | IC50 (B16 mouse melanoma cells): 6830 nM | IC50 [2]: 1.46 nM | IC50 [3]: 0.106 nM

COCCOc1ccc(-c2ccnc(N3CCC(F)(C(=O)NC4(C)CCN5CCC4CC5)CC3)n2)cc1 (stereo not drawn) [Example 93, 4-Fluoro-1-(4-(4-(2-methoxyethoxy)phenyl)pyrimidin-2-yl)-N-(4-methyl-1-azabicyclo[3.2.2]nonan-4-yl)piperidine-4-carboxamide]
IC50 [1]: 43.9 nM | IC50 (C32 human melanoma cells): 316 nM | IC50 (B16 mouse melanoma cells): 3960 nM | IC50 [2]: 3.96 nM | IC50 [3]: 0.261 nM

CC1(NC(=O)C2(F)CCN(c3nccc(-c4ccc(F)cc4)n3)CC2)CCN2CCC1CC2 (stereo not drawn) [Example 94, 4-Fluoro-1-(4-(4-fluorophenyl)pyrimidin-2-yl)-N-(4-methyl-1-azabicyclo[3.2.2]nonan-4-yl)piperidine-4-carboxamide]
IC50 [1]: 14.4 nM | IC50 (C32 human melanoma cells): 46.4 nM | IC50 (B16 mouse melanoma cells): 2100 nM | IC50 [2]: 0.736 nM | IC50 [3]: 0.0964 nM

CC1(NC(=O)C2(F)CCN(c3nccc(-c4ccc(F)cc4)n3)CC2)CN2CCC1CC2 (stereo not drawn) [Example 95, 4-Fluoro-1-(4-(4-fluorophenyl)pyrimidin-2-yl)-N-(3-methylquinuclidin-3-yl)piperidine-4-carboxamide]
IC50 [1]: 20 nM | IC50 (C32 human melanoma cells): 31.6 nM | IC50 (B16 mouse melanoma cells): 4690 nM | IC50 [2]: 0.585 nM | IC50 [3]: 0.0836 nM

COCc1ccc(-c2ccnc(N3CCC(C)(C(=O)NC4(C)CCN5CCC4CC5)CC3)n2)cc1 (stereo not drawn) [Example 96, 1-(4-(4-(Methoxymethyl)phenyl)pyrimidin-2-yl)-4-methyl-N-(4-methyl-1-azabicyclo[3.2.2]nonan-4-yl)piperidine-4-carboxamide]
IC50 [1]: 145 nM | IC50 (C32 human melanoma cells): 1000 nM | IC50 (B16 mouse melanoma cells): 3390 nM | IC50 [2]: 7 nM | IC50 [3]: 0.804 nM

COCCOCc1ccc(-c2ccnc(N3CCC(C)(C(=O)NC4(C)CCN5CCC4CC5)CC3)n2)cc1 (stereo not drawn) [Example 97, 1-(4-(4-((2-Methoxyethoxy)methyl)phenyl)pyrimidin-2-yl)-4-methyl-N-(4-methyl-1-azabicyclo[3.2.2]nonan-4-yl)piperidine-4-carboxamide]
IC50 [1]: 285 nM | IC50 (C32 human melanoma cells): 1000 nM | IC50 (B16 mouse melanoma cells): ≥ 10000 nM | IC50 [2]: 13.4 nM | IC50 [3]: 1.36 nM

COCCOCc1ccc(-c2ccnc(N3CCC(C)(C(=O)NC4(C)CN5CCC4CC5)CC3)n2)cc1 (stereo not drawn) [Example 98, 1-(4-(4-((2-Methoxyethoxy)methyl)phenyl)pyrimidin-2-yl)-4-methyl-N-(3-methylquinuclidin-3-yl)piperidine-4-carboxamide]
IC50 [1]: 1910 nM | IC50 (C32 human melanoma cells): 1000 nM | IC50 (B16 mouse melanoma cells): 8190 nM | IC50 [2]: 76.9 nM | IC50 [3]: 8.13 nM

CC1(NC(=O)C2(O)CCN(c3nccc(-c4ccc(F)cc4)n3)CC2)CCN2CCC1CC2 (stereo not drawn) [Example 99, 1-(4-(4-Fluorophenyl)pyrimidin-2-yl)-4-hydroxy-N-(4-methyl-1-azabicyclo[3.2.2]nonan-4-yl)piperidine-4-carboxamide]
IC50 [1]: 12 nM | IC50 (C32 human melanoma cells): 46.4 nM | IC50 (B16 mouse melanoma cells): 3780 nM | IC50 [2]: 2.23 nM | IC50 [3]: 0.0552 nM

COC1(C(=O)NC2(C)CCN3CCC2CC3)CCN(c2nccc(-c3ccc(F)cc3)n2)CC1 (stereo not drawn) [Example 100, 1-(4-(4-Fluorophenyl)pyrimidin-2-yl)-4-methoxy-N-(4-methyl-1-azabicyclo[3.2.2]nonan-4-yl)piperidine-4-carboxamide]
IC50 [1]: 26.5 nM | IC50 (C32 human melanoma cells): 1000 nM | IC50 (B16 mouse melanoma cells): 1900 nM | IC50 [2]: 3.68 nM | IC50 [3]: 0.109 nM

COCCCOc1ccc(-c2ccnc(N3CCC(OC)(C(=O)NC4(C)CCN5CCC4CC5)CC3)n2)cc1 (stereo not drawn) [Example 101, 4-Methoxy-1-(4-(4-(3-methoxypropoxy)phenyl)pyrimidin-2-yl)-N-(4-methyl-1-azabicyclo[3.2.2]nonan-4-yl)piperidine-4-carboxamide]
IC50 [1]: 78.5 nM | IC50 (C32 human melanoma cells): 1000 nM | IC50 (B16 mouse melanoma cells): 2030 nM | IC50 [2]: 3.38 nM | IC50 [3]: 0.436 nM

COC1(C(=O)NC2(C)CCN3CCC2CC3)CCN(c2ncc(F)c(-c3ccc(OCCF)cc3)n2)CC1 (stereo not drawn) [Example 102, 1-(5-Fluoro-4-(4-(2-fluoroethoxy)phenyl)pyrimidin-2-yl)-4-methoxy-N-(4-methyl-1-azabicyclo[3.2.2]nonan-4-yl)piperidine-4-carboxamide]
IC50 [1]: 92.9 nM | IC50 (C32 human melanoma cells): 100 nM | IC50 (B16 mouse melanoma cells): 2850 nM | IC50 [2]: 1.03 nM | IC50 [3]: 0.258 nM

COC1(C(=O)NC2(C)CCN3CCC2CC3)CCN(c2nccc(-c3ccc(OCCF)cc3)n2)CC1 (stereo not drawn) [Example 103, 1-(4-(4-(2-Fluoroethoxy)phenyl)pyrimidin-2-yl)-4-methoxy-N-(4-methyl-1-azabicyclo[3.2.2]nonan-4-yl)piperidine-4-carboxamide]
IC50 [1]: 73.8 nM | IC50 (C32 human melanoma cells): 316 nM | IC50 (B16 mouse melanoma cells): 3110 nM | IC50 [2]: 3.65 nM | IC50 [3]: 0.29 nM

COCCOc1cnc(N2CCC(C(=O)NC3(C)CCN4CCC3CC4)CC2)nc1-c1ccc(F)cc1 (stereo not drawn) [Example 104, 1-(4-(4-Fluorophenyl)-5-(2-methoxyethoxy)pyrimidin-2-yl)-N-(4-methyl-1-azabicyclo[3.2.2]nonan-4-yl)piperidine-4-carboxamide]
IC50 [1]: 51.3 nM | IC50 (C32 human melanoma cells): 1000 nM | IC50 (B16 mouse melanoma cells): ≥ 10000 nM | IC50 [2]: 25.1 nM | IC50 [3]: 3 nM

COCCOc1cc(-c2ccc(F)cc2)nc(N2CCC(C(=O)NC3(C)CCN4CCC3CC4)CC2)n1 (stereo not drawn) [Example 105, 1-(4-(4-Fluorophenyl)-6-(2-methoxyethoxy)pyrimidin-2-yl)-N-(4-methyl-1-azabicyclo[3.2.2]nonan-4-yl)piperidine-4-carboxamide]
IC50 [1]: 272 nM | IC50 (C32 human melanoma cells): 1000 nM | IC50 (B16 mouse melanoma cells): 3660 nM | IC50 [2]: 10.5 nM | IC50 [3]: 2 nM

CC1(NC(=O)C2CCN(c3cc(-c4ccc(F)cc4)ccn3)CC2)CCN2CCC1CC2 (stereo not drawn) [Example 106, 1-(4-(4-Fluorophenyl)pyridin-2-yl)-N-(4-methyl-1-azabicyclo[3.2.2]nonan-4-yl)piperidine-4-carboxamide]
IC50 [1]: 15.3 nM | IC50 (C32 human melanoma cells): 9020 nM | IC50 (B16 mouse melanoma cells): 6970 nM | IC50 [2]: 0.858 nM | IC50 [3]: 0.095 nM

CC1(NC(=O)C2CCN(c3cncc(-c4ccc(F)cc4)c3)CC2)CCN2CCC1CC2 (stereo not drawn) [Example 107, 1-(5-(4-Fluorophenyl)pyridin-3-yl)-N-(4-methyl-1-azabicyclo[3.2.2]nonan-4-yl)piperidine-4-carboxamide]
IC50 [1]: 299 nM | IC50 (C32 human melanoma cells): 78.5 nM | IC50 (B16 mouse melanoma cells): ≥ 10000 nM | IC50 [2]: 4.76 nM | IC50 [3]: 0.935 nM

CC1(NC(=O)C2CCN(c3ccnc(-c4ccc(F)cc4)c3)CC2)CCN2CCC1CC2 (stereo not drawn) [Example 108, 1-(2-(4-Fluorophenyl)pyridin-4-yl)-N-(4-methyl-1-azabicyclo[3.2.2]nonan-4-yl)piperidine-4-carboxamide]
IC50 [1]: 1080 nM | IC50 (C32 human melanoma cells): 3160 nM | IC50 (B16 mouse melanoma cells): 5650 nM | IC50 [2]: 80.8 nM | IC50 [3]: 54.1 nM

CN(C(=O)C1CCN(c2nccc(-c3ccc(F)cc3)n2)CC1)C1CN2CCC1CC2 (stereo not drawn) [Example 109, 1-(4-(4-Fluorophenyl)pyrimidin-2-yl)-N-methyl-N-(quinuclidin-3-yl)piperidine-4-carboxamide]
IC50 [1]: 2230 nM | IC50 (C32 human melanoma cells): 3160 nM | IC50 (B16 mouse melanoma cells): 9530 nM | IC50 [2]: 40.1 nM | IC50 [3]: 8.99 nM

O=C(OC1CCN2CCC1CC2)C1CCN(c2nccc(-c3ccc(F)cc3)n2)CC1 (stereo not drawn) [Example 110, 1-Azabicyclo[3.2.2]nonan-4-yl 1-(4-(4-fluorophenyl)pyrimidin-2-yl)piperidine-4-carboxylate]
IC50 [1]: 528 nM | IC50 (C32 human melanoma cells): 1000 nM | IC50 (B16 mouse melanoma cells): 3810 nM | IC50 [2]: 1.22 nM | IC50 [3]: 2.39 nM

From patent US12060349B2, “Glucosylceramide synthase inhibitors” (Genzyme Corporation, priority 2012, dated 2024)
